Results reported in ChEMBL document CHEMBL2016457, “Discovery of potent and orally bioavailable 17β-hydroxysteroid dehydrogenase type 3 inhibitors” (Bioorg Med Chem, 2012).
Active and inactive are the calls of the source. No rule for the calls is given here.

Key:
[1] = target: T1, 17-beta-hydroxysteroid dehydrogenase type 1 (Homo sapiens) (UniProt P14061); assay: Inhibition of human recombinant 17-beta-HSD1 expressed in human HeLa cells using estrone as substrate preincubated for 30 mins prior substrate addition measured after 120 mins by spectrophotometry; type: cell-based
T1 sequence (whole entry): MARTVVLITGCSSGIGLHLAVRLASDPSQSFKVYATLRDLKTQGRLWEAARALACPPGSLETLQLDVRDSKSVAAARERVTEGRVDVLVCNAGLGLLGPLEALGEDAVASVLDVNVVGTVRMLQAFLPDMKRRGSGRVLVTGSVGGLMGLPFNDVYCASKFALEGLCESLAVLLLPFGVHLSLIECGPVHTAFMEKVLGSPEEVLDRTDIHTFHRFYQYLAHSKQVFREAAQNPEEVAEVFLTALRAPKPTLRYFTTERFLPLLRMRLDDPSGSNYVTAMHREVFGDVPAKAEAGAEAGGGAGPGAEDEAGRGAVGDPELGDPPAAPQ

[2] = target: T2, 17-beta-hydroxysteroid dehydrogenase type 2 (Homo sapiens) (UniProt P37059); assay: Inhibition of human recombinant 17-beta-HSD2 expressed in human HeLa cells using estradiol as substrate preincubated for 30 mins prior substrate addition measured after 120 mins by spectrophotometry; type: cell-based
T2 sequence (whole entry): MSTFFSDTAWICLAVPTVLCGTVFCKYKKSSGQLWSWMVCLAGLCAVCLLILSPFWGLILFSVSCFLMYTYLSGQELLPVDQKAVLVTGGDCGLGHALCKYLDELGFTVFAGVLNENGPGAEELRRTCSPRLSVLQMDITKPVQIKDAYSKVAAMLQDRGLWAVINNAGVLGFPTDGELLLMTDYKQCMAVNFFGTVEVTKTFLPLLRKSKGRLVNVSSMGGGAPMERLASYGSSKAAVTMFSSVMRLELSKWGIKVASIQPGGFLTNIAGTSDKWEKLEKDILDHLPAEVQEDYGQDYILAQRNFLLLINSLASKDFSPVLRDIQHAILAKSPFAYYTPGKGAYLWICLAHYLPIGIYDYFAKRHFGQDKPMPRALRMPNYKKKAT

[3] = target: T3, Androgen receptor (Homo sapiens) (UniProt P10275); assay: Agonist activity at human androgen receptor expressed in human HeLa cells assessed as DHT-induced response after 40 hrs by luciferase/beta-galactosidase-based reporter gene assay; type: functional, cell-based
T3 sequence (whole entry): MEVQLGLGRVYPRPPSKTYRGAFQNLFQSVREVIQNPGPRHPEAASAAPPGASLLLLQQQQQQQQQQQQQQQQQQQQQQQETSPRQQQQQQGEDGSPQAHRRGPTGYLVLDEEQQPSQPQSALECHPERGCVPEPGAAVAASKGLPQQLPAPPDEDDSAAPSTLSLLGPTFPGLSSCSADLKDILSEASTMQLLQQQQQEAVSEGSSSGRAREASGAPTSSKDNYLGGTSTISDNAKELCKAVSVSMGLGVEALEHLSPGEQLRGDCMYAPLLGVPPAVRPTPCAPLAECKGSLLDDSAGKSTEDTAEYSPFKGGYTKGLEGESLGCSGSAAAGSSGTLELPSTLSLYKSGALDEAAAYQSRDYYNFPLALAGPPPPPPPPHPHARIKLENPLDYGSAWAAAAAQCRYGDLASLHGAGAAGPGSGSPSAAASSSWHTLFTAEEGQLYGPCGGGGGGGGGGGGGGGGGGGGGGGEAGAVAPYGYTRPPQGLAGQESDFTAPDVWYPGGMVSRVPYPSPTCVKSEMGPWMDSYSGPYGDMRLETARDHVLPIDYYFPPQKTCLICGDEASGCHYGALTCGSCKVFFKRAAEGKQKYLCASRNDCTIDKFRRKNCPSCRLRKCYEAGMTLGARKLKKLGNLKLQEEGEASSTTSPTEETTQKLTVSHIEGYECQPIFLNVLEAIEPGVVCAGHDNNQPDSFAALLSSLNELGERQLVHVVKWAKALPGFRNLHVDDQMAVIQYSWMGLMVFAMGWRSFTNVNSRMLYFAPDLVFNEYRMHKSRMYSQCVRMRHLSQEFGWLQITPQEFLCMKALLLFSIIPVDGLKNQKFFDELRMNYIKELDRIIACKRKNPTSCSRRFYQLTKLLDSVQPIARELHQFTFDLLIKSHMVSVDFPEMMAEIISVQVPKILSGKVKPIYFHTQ

[4] = target: T4, Estrogen receptor (Homo sapiens) (UniProt P03372); assay: Agonist activity at human Estrogen receptor ERalpha expressed in human HeLa cells assessed as DHT-induced response after 40 hrs by luciferase/beta-galactosidase-based reporter gene assay; type: functional, cell-based
T4 sequence (whole entry): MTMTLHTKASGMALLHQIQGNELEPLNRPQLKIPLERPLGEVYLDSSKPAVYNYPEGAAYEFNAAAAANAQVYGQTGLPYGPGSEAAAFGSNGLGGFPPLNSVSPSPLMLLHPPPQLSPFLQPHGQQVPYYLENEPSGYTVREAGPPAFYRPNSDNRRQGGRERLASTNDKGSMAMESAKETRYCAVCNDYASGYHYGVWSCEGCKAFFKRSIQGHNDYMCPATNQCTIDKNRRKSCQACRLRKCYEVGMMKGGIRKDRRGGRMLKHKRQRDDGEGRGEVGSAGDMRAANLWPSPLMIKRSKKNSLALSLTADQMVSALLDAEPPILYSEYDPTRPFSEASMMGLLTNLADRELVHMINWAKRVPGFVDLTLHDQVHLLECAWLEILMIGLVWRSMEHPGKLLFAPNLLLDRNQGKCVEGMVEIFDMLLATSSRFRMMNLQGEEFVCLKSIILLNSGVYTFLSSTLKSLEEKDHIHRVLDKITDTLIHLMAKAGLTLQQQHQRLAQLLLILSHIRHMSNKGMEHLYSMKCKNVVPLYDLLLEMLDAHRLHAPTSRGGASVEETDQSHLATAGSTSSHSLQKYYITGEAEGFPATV

[5] = target: T5, Glucocorticoid receptor (Homo sapiens) (UniProt P04150); assay: Agonist activity at human Glucocorticoid receptor expressed in human HeLa cells assessed as DHT-induced response after 40 hrs by luciferase/beta-galactosidase-based reporter gene assay; type: functional, cell-based
T5 sequence (whole entry): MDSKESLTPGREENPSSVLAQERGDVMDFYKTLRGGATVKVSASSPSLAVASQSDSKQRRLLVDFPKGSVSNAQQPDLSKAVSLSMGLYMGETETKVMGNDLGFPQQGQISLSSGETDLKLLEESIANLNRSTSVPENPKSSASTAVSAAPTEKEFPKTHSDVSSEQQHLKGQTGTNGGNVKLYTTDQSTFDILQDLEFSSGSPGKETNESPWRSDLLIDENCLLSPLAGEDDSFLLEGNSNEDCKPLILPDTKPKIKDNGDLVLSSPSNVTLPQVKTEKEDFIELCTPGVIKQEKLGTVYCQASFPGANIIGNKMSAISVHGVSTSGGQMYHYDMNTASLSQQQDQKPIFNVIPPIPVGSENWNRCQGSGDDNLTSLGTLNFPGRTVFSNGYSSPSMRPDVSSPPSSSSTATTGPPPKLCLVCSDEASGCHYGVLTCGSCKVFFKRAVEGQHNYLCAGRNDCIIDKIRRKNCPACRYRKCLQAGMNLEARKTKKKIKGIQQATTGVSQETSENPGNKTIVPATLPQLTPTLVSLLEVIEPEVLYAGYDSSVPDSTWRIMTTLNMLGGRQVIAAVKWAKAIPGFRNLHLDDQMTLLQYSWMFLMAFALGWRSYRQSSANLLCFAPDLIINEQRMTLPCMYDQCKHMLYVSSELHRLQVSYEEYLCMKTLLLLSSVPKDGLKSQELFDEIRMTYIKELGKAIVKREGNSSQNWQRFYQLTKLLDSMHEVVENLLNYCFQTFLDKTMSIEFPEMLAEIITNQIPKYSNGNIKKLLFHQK

[6] = target: T3, Androgen receptor (Homo sapiens); assay: Antagonist activity at human androgen receptor expressed in human HeLa cells assessed as inhibition of DHT-induced response after 40 hrs by luciferase/beta-galactosidase-based reporter gene assay; type: functional, cell-based
[7] = target: T4, Estrogen receptor (Homo sapiens); assay: Antagonist activity at human ERalpha receptor expressed in human HeLa cells assessed as inhibition of DHT-induced response after 40 hrs by luciferase/beta-galactosidase-based reporter gene assay; type: functional, cell-based
[8] = target: T5, Glucocorticoid receptor (Homo sapiens); assay: Antagonist activity at human GR receptor expressed in human HeLa cells assessed as inhibition of DHT-induced response after 40 hrs by luciferase/beta-galactosidase-based reporter gene assay; type: functional, cell-based
[9] = target: T6, 17-beta-hydroxysteroid dehydrogenase type 3 (Homo sapiens, UniProt P37058)
T6 sequence (P37058 whole entry): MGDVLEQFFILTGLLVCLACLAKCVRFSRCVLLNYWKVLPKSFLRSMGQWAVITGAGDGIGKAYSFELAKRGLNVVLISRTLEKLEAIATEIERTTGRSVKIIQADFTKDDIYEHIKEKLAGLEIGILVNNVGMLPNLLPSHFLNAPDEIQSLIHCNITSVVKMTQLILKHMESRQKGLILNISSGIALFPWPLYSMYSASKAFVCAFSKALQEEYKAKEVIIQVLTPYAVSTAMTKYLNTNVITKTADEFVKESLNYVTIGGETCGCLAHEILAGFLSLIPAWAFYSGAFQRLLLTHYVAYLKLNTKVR
Description: Inhibition of human recombinant 17-beta-HSD3 expressed in human HeLa cells using androstenedione as substrate preincubated for 30 mins prior substrate addition measured after 120 mins by spectrophotometry

SMILES | inhibition [1] | inhibition [2] | Activity [3] | Activity [4] | Activity [5] | Activity [6] | Activity [7] | Activity [8] | IC50 [9] [nM]
CC(=O)Nc1ccc(N2C(=O)O/C(=C\c3ccc(O)c(Br)c3)C2=O)cc1 | inactive | inactive | inactive | inactive | inactive | inactive | inactive | inactive | 57
CSc1ccc(N2C(=O)O/C(=C\c3ccc(O)c(Br)c3)C2=O)cc1 | inactive | inactive | inactive | inactive | inactive | inactive | inactive | inactive | 90
COc1ccc(N2C(=O)/C(=C/c3ccc(O)c(OC)c3)OC2=S)cc1 | inactive | inactive | inactive | inactive | inactive | inactive | inactive | inactive | 270
O=C1/C(=C/c2ccc(O)c(Br)c2)OC(=S)N1c1ccc2c(c1)OCO2 | inactive | inactive | inactive | inactive | inactive | inactive | inactive | inactive | 12
O=C1O/C(=C\c2ccc(O)c(Br)c2)C(=O)N1c1ccc(F)nc1 | inactive | inactive | inactive | inactive | inactive | inactive | inactive | inactive | 21
O=C1/C(=C/c2ccc(O)c(Br)c2)OC(=S)N1c1ccccc1 | inactive | inactive | inactive | inactive | inactive | inactive | inactive | inactive | 6

These reach a lower IC50 [9]. Values come first.

inhibition [1] | inhibition [2] | Activity [3] | Activity [4] | Activity [5] | Activity [6] | Activity [7] | Activity [8] | IC50 [9] [nM] | SMILES
inactive | inactive | inactive | inactive | inactive | inactive | inactive | inactive | 5 | COc1ccc(N2C(=O)/C(=C/c3cc(F)c(O)c(F)c3)OC2=S)cc1
inactive | inactive | inactive | inactive | inactive | inactive | inactive | inactive | 2 | COc1ccc(N2C(=O)/C(=C/c3ccc(O)c(F)c3)OC2=S)cc1
inactive | inactive | inactive | inactive | inactive | inactive | inactive | inactive | 3 | O=C1/C(=C/c2ccc(O)c(Br)c2)OC(=S)N1c1ccc(C(F)(F)F)cc1
inactive | inactive | inactive | inactive | inactive | inactive | inactive | inactive | 5 | COc1ccc(N2C(=O)/C(=C/c3ccc(O)cc3Cl)OC2=S)cc1
inactive | inactive | inactive | inactive | inactive | inactive | inactive | inactive | 4 | COc1ccc(N2C(=O)O/C(=C\c3ccc(O)c(Br)c3)C2=O)cn1
